# From ChEMBL document CHEMBL1130779, “Synthesis and pharmacological activity of the stereoisomers of GP-88, a propafenone-type modulator of multidrug resistance” (Bioorg Med Chem Lett, 1998)
# Tested on: CCRF-CEM/VCR-1000
# Experiment: MDR-modulating activity as a measure to inhibit P-glycoprotein (PGP) mediated transmembrane transport in human T-lymphoblast cell line CEM vcr 1000 using the daunomycin efflux assay
# Format: functional, cell-based
row,SMILES,EC50 [nM]
1,CCCNC[C@H](O)COc1ccccc1C(=O)CCc1ccccc1,370
2,C[C@@H](O)COc1ccccc1[C@@H](C)O,780
3,C[C@H](O)c1ccccc1OC[C@@H](C)O,580
4,CCCNC[C@@H](O)COc1ccccc1C(=O)CCc1ccccc1,260
5,C[C@H](O)COc1ccccc1[C@@H](C)O,1400
6,C[C@H](O)COc1ccccc1[C@H](C)O,1560
